The values below come from patent publication US20160303102A1, “PROCESS FOR THE PRODUCTION OF DRUG FORMULATIONS FOR ORAL ADMINISTRATION” (Alrise Biosystems GmbH, priority 2013, published 2016).

The conditions of data set [1]: 20° C.; cited from earlier work.
A short description of data set [2]: Solubility of exemplary therapeutic agents in organic solvents.
From the text: In this context, the solubility is indicated as the weight of the dissolved substance (the solute) per volume of the solvent (i.e. the volume of solvent added to the solute).

Values after ≈ are worked out from the molar mass of the structure shown. Where a name gives a salt, the structure may show the parent alone. Marks after values point to notes of the source that are not given here.

As to `CCCCOC=O` [Butyl formate], the Solubility in water result in data set [1] was “slow decomposition”.
For `CC(=O)OC(C)(C)C` [tert. Butyl acetate], the Solubility in water entry in data set [1] is on record as “insoluble”.
Consider `CCCOC=O` [n- Propyl formate], for which, in data set [1], the Solubility in water is 28 g/L.
Consider `O=C(c1ccc(OCCN2CCCCC2)cc1)c1c(-c2ccc(O)cc2)sc2cc(O)ccc12` [Raloxifene HCl, [6-hydroxy-2-(4-hydroxyphenyl)-benzothiophen-3-yl]-[4-[2-(1-piperidyl)ethoxy]phenyl]-methanone], for which the Solubility entry in data set [2] (solvent Acetone) is listed as “non-soluble”; in data set [2] (solvent Benzyl formate), “non-soluble”; in data set [2] (solvent Benzylalcohol), “non-soluble”; in data set [2] (solvent DMSO), “soluble”; in data set [2] (solvent Dichloromethane), “non-soluble”; in data set [2] (solvent EMK), “non-soluble”. Also, the Solubility entry in data set [2] (solvent Ethanol), in data set [2] (solvent Ethyl acetate), in data set [2] (solvent Ethyl formate), in data set [2] (solvent Isopropyl acetate), in data set [2] (solvent Isopropyl formate) and in data set [2] (solvent Methyl acetate) was “non-soluble” in each case. The Solubility entry is recorded as “soluble” in data set [2] (solvent NMP), “non-soluble” in data set [2] (solvent Propyl formate) and “non-soluble” in data set [2] (solvent THF).
For the compound `CC(C)OC=O` [Isopropyl formate], in data set [1], the Solubility in water entry is on record as “slow decomposition”.
For `OCCOCCN1CCN(C2=Nc3ccccc3Sc3ccccc32)CC1` [Quetiapine fumarate, 2-(2-(4-dibenzo[b,f][1,4]thiazepine-11-yl-1-piperazinyl)ethoxy)ethanol], the Solubility entry in data set [2] (solvent Acetone) is “non-soluble”; in data set [2] (solvent Benzylalcohol), “soluble”; in data set [2] (solvent DMSO), “soluble”; in data set [2] (solvent EMK), “non-soluble”; in data set [2] (solvent Ethanol), “non-soluble”; in data set [2] (solvent Ethyl acetate) it was “non-soluble”. In addition, the Solubility result in data set [2] (solvent Ethyl formate) is recorded as “non-soluble”; in data set [2] (solvent Glycofurol), “soluble”; in data set [2] (solvent Methyl acetate), “non-soluble”; in data set [2] (solvent NMP), “soluble”; in data set [2] (solvent THF), “soluble”; in data set [2] (solvent Triacetin) it was “non-soluble”.
Take `CNCC[C@H](Oc1cccc2ccccc12)c1cccs1` [Duloxetine HCl, (+)-(S)—N-Methyl-3-(naphthalen-1-yloxy)-3-(thiophen-2-yl)propan-1-amine]: the Solubility entry in data set [2] (solvent Acetone) is given as “non-soluble”; in data set [2] (solvent Benzyl benzoate), “non-soluble”; in data set [2] (solvent Benzylalcohol), “soluble”; in data set [2] (solvent DMSO), “soluble”; in data set [2] (solvent EMK), “non-soluble”; in data set [2] (solvent Ethanol) it was “soluble”. Moreover, the Solubility entry in data set [2] (solvent Ethyl acetate) is listed as “non-soluble”; in data set [2] (solvent Ethyl formate) it was “non-soluble”; in data set [2] (solvent Glycofurol), “soluble”; in data set [2] (solvent Methyl acetate), “non-soluble”; in data set [2] (solvent Methyl benzoate) it was “non-soluble”; in data set [2] (solvent NMP), “soluble”. Besides, the Solubility result in data set [2] (solvent THF) was “soluble”; in data set [2] (solvent Triacetin), “non-soluble”.
For `ClCCl` [Dichlormethan], the Solubility in water in data set [1] was 20 g/L (≈ 235 mM).
As for `O=C1CCc2ccc(OCCCCN3CCN(c4cccc(Cl)c4Cl)CC3)cc2N1` [Aripiprazole], the Solubility result in data set [2] (solvent Acetone) was “soluble”; in data set [2] (solvent Benzyl benzoate), “soluble”; in data set [2] (solvent Benzylalcohol) it was “soluble”; in data set [2] (solvent DMSO), “soluble”; in data set [2] (solvent EMK) it was “soluble”; in data set [2] (solvent Ethanol), “non-soluble”. Besides, the Solubility result in data set [2] (solvent Ethyl acetate) was “soluble”; in data set [2] (solvent Ethyl formate) it was “soluble”; in data set [2] (solvent Glycofurol), “soluble”; in data set [2] (solvent Isopropyl acetate), “non-soluble”; in data set [2] (solvent Isopropyl formate), “soluble”; in data set [2] (solvent Methyl acetate) it was “soluble”. In addition, the Solubility entry in data set [2] (solvent NMP) was “soluble”; in data set [2] (solvent THF) it was “soluble”; in data set [2] (solvent Triacetin) it was “non-soluble”.
As to `CC(=O)C(C)C` [Methylisopropylketone], the Solubility in water in data set [1] is listed as 6 g/L (≈ 69.7 mM).
For `COC(C)=O` [Methyl acetate], in data set [1], the Solubility in water is on record as 319 g/L.
Take `CCOC(C)=O` [Ethyl acetate]: the Solubility in water in data set [1] was 85.3 g/L.
As for `CCOC=O` [Ethyl formate], the Solubility in water in data set [1] is 105*** g/L.
Take `CC(C)c1nc(N(C)S(C)(=O)=O)nc(-c2ccc(F)cc2)c1/C=C/[C@@H](O)C[C@@H](O)CC(=O)O` [Rosuvastatin Ca, (3R,5S,6E)-7-[4-(4-fluorophenyl)-2-(N-methylmethanesulfonamido)-6-(propan-2-yl)pyrimidin-5-yl]-3,5-dihydroxyhept-6-enoic acid]: the Solubility entry is recorded as “soluble” in data set [2] (solvent Acetone); “soluble” in data set [2] (solvent Benzylalcohol); “soluble” in data set [2] (solvent DMSO); “soluble” in data set [2] (solvent EMK); “non-soluble” in data set [2] (solvent Ethanol); “soluble” in data set [2] (solvent Ethyl acetate). For the same compound, the Solubility entry is on record as “soluble” in data set [2] (solvent Ethyl formate); “soluble” in data set [2] (solvent Glycofurol); “non-soluble” in data set [2] (solvent Isopropyl acetate); “non-soluble” in data set [2] (solvent Isopropyl formate); “soluble” in data set [2] (solvent Methyl acetate); “soluble” in data set [2] (solvent NMP). Moreover, the Solubility result is given as “soluble” in data set [2] (solvent THF) and “non-soluble” in data set [2] (solvent Triacetin).
Regarding `CCCOC(C)=O` [n-Propyl acetate], the Solubility in water in data set [1] was 21.2 g/L.
On to `CC(C)=O` [Aceton], for which the Solubility in water entry in data set [1] was “soluble”.
As to `CN1C[C@H]2c3ccccc3Oc3ccc(Cl)cc3[C@@H]2C1` (relative stereo) [Asenapine maleate, (3aRS,12bRS)-rel-5-Chloro-2,3,3a,12b-tetrahydro-2-methyl-1H-dibenz[2,3:6,7]oxepino[4,5-c]pyrrole], the Solubility entry in data set [2] (solvent Acetone), in data set [2] (solvent Benzylalcohol), in data set [2] (solvent DMSO), in data set [2] (solvent Dimethylcarbonate), in data set [2] (solvent EMK) and in data set [2] (solvent Ethanol) was “soluble” in each case. Also, the Solubility result is reported as “soluble” in data set [2] (solvent Ethyl acetate); “soluble” in data set [2] (solvent Ethyl formate); “soluble” in data set [2] (solvent Glycofurol); “non-soluble” in data set [2] (solvent Iso propanol); “non-soluble” in data set [2] (solvent Isopropyl acetate); “soluble” in data set [2] (solvent Isopropyl formate). Besides, the Solubility entry in data set [2] (solvent Methyl acetate), in data set [2] (solvent NMP) and in data set [2] (solvent THF) was “soluble” throughout.
`COC(=O)OC` [Dimethyl Carbonate]: the Solubility in water in data set [1] is 139 g/L (≈ 1540 mM).
